# “Also recorded” adds a separate entry of the source.
# Assays:
# [1] = test system: wild-type C57BL/6 male mice; assay: Noxious thermal sensitivity, Hargreaves method (paw withdrawal latency to radiant heat) after i.t. injection; assay type: in vivo, mouse
# Description: Behavior. C57BL/6 male mice, 2-3 months old, were purchased from Jackson Laboratories (Bar Harbor, Maine, United States of America) for all behavioral experiments involving PAP protein injections. All mice were acclimated to the testing room, equipment and experimenter for one day before behavioral testing. The experimenter was blind to genotype and drug treatment during behavioral testing.
# Thermal sensitivity was measured by heating one hindpaw with a Plantar Test apparatus (IITC) following the Hargreaves method (Hargreaves et al., 1988). The radiant heat source intensity was calibrated so that a paw withdrawal reflex was evoked in ˜10 seconds, on average, in wild-type C57BL/6 mice. Cutoff time was 20 s. One measurement was taken from each paw per day to determine paw withdrawal latency. To perform the tail immersion assay, mice were gently restrained in a towel and the distal one-third of the tail was immersed in 46.5° C. water. Latency to withdrawal the tail was measured once per mouse. Mechanical sensitivity was measured using semi-rigid tips attached to an Electronic von Frey apparatus (IITC) as described elsewhere (Cunha et al., 2004; Inoue et al., 2004). Three measurements were taken from each paw (separated at 5 min. intervals) then averaged to determine paw withdrawal threshold in grams.
# Intrathecal injections. hPAP, bPAP and vehicle controls were injected into the lumbar region of unanesthetized mice as described (Fairbanks, 2003).
# Intrathecal injection was chosen because PAP protein is unlikely to reach spinal cord tissue if injected intraperitoneally.
# [2] = test system: wild-type C57BL/6 male mice; assay type: in vivo, mouse
# Excerpt: Signs of immune and microglial activation can be monitored using molecular markers.
# [3] = biological target: T1, A1-adenosine receptor (A1R) (Mus musculus, UniProt Q60612); assay: Antagonism of hPAP anti-nociception by the A1R antagonist CPX, CFA model; assay type: in vivo
# T1 construct: endogenous in cells; host or cells: wild-type C57BL/6 mice, in vivo (CPX 1 mg/kg i.p.)
# T1 sequence (Q60612 1-326): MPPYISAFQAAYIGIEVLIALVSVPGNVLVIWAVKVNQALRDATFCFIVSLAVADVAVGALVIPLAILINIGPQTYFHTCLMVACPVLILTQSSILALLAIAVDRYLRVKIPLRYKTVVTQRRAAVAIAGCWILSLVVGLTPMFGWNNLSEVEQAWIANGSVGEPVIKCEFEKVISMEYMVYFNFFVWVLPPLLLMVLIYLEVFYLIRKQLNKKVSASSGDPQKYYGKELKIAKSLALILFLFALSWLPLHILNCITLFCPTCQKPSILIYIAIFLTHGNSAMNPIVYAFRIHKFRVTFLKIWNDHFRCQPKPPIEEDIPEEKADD
# Description: Wild-type mice were tested for noxious thermal (FIG. 29A) and mechanical (FIG. 29B) sensitivity before (baseline, BL) and following injection of Complete Freund's Adjuvant (CFA-arrow) into one hindpaw (inflamed paw, open circles or dark squares). The non-inflamed hindpaw served as control (shaded circles or squares). All mice were injected with active hPAP (hPAP-arrow; 250 mU, i.t.). Two days later, half the mice were injected with vehicle (CPXN-arrow, circles; intraperitoneal (i.p.); 1 h before behavioral measurements) while the other half were injected with 8-cyclopentyl-1,3-dipropylxanthine (CPX/V-arrow, squares; 1 mg/kg i.p.; 1 h before behavioral measurements). […] All data are presented as means±SEM.
# The responses of wild-type and A1R^−/− mice were also tested using the CFA chronic inflammatory pain model and the SNI neuropathic pain model.
# [4] = test system: PAP (bPAP, mPAP); assay: Fluorometric acid phosphatase assay (DiFMUP, EnzChek); assay type: biochemical, bovine; mouse; conditions: L-tartrate 10 mM
# Description: FIG. 3 is a set of bar graphs showing a fluorometric assay to quantify acid phosphatase activity. […] Right-hand Bar Graph: Mouse prostatic acid phosphatase (mPAP) assayed from transfected cell lysates. Activity is reduced by the PAP inhibitor L-tartrate (10 mM). These assays were performed following the manufacturers protocol (EnzChek Assay, Invitrogen, Carlsbad, Calif., United States of America) and quantified using a fluorescent microplate reader.
# A way to quantify PAP activity was needed so that reproducible amounts of active PAP protein could be added to cultured cells or injected into live mice for the experiments described below. To accomplish this, two well-established methods were tested for measuring PAP activity: 1) a colorimetric assay using para-nitrophenyl phosphate (p-NPP) hydrolysis; and 2) a fluorometric assay using difluoro-4-methylumbelliferyl phosphate (DiFMUP) hydrolysis (commercially available as the EnzChek Acid Phosphatase kit from Invitrogen, Carlsbad, Calif., United States of America). Based on direct comparisons, it was determined that the fluorometric assay was much more sensitive than p-NPP for quantification of PAP activity. […] This fluorometric assay can thus be used to quantify phosphatase activity of pure PAP protein and PAP from cell lysates.
# [5] = test system: Rat1 cells; assay: LPA-evoked calcium signaling (Fura2-AM) with LPA pre-incubated with bPAP; assay type: cell-based, rat; conditions: 1 μM LPA incubated 1.5 hr at 37° C. with or without 0.2 mU bPAP, applied 1 minute
# Description: (“a” in FIG. 4). In parallel, a second tube was incubated containing 1 μM LPA (without bPAP) for 1.5 hr at 37° C. (“b” in FIG. 4). Rat1 cells were loaded with the calcium-sensitive dye Fura2-acetoxymethyl (AM) ester (Dong et al., 2001), and (LPA+bPAP) applied to these cells for 1 minute (see “a” in FIG. 4). Following a brief washout period, (LPA) was applied to the cells for 1 minute (see “b” in FIG. 4).
# [6] = test system: wild-type C57BL/6 male mice; assay: LPA-evoked sensitization in vivo (i.t. LPA with or without bPAP); conditions: 1 nmol LPA i.t., alone or incubated with 20 μU bPAP 10 min at 37° C.
# Description: First, mechanical sensitivity was measured with an electronic von Frey apparatus (IITC). Then, thermal sensitivity was measured using the Hargreaves method (radiant heating of hindpaw; IITC Plantar Test Apparatus).
compound,measurement,setting,value
"OC[C@H]1O[C@@H](n2cnc3c(NC4CCCC4)ncnc32)[C@H](O)[C@@H]1O [CPA, N^6-cyclopentyladenosine]","duration of effect on paw withdrawal latency, in words","[1]; i.t., compared with hPAP",short-term effects (lasting hours not days)
same,effect on noxious thermal sensitivity / paw withdrawal latency,"[1]; uninjured wild-type mice, i.t. injection (bPAP 20 μU; hPAP 1.3 mg/mL or 250 mU; ALP 25,000 mU)",dose-dependent increases in paw withdrawal latency
same,motor paralysis,[2]; two highest i.t. doses (dose range 0.0005 nmol-5 nmol),transient paralysis; also recorded: fore- and hindlimb paralysis
"CCCn1c(=O)c2[nH]c(C3CCCC3)nc2n(CCC)c1=O [CPX, 8-cyclopentyl-1,3-dipropylxanthine]",effect on thermal or mechanical sensitivity after hPAP effects wore off,[3]; 1 mg/kg i.p. on day 9,did not affect thermal or mechanical sensitivity
same,effect on anti-nociceptive effects of hPAP,"[3]; 1 mg/kg i.p., two days after hPAP 250 mU i.t., 1 h before behavioral measurements",transiently reversed the anti-nociceptive effects of hPAP in control and inflamed hindpaws; also recorded: transiently antagonized all anti-nociceptive effects of hPAP
O=C(O)[C@H](O)[C@@H](O)C(=O)O [L-tartrate],effect on PAP phosphatase activity,[4],inhibited; also recorded: reduced
"CN1CC[C@]23c4c5ccc(O)c4O[C@H]2[C@@H](O)C=C[C@H]3[C@H]1C5.O=S(=O)(O)O [morphine, morphine sulfate]",increase in paw withdrawal latency above baseline,"[1]; single i.t. injection, highest doses",62.2%±9.9%
same,side effects,"[2]; mouse, in vivo",Side-effects were observed at the two highest doses
lysophosphatidic acid [LPA],change of intracellular calcium levels,[5],dramatically changed
same,"behavioral sensitization (mechanical allodynia, thermal hyperalgesia)",[6],caused long-lasting mechanical allodynia and thermal hyperalgesia

# Source: patent US20100266569A1, “PROSTATIC ACID PHOSPHATASE FOR THE TREATMENT OF PAIN” (priority 2007, published 2010)
